Results: patent publication US20240382483A1, “HETEROCYCLIC EGFR INHIBITORS FOR USE IN THE TREATMENT OF CANCER” (Blueprint Medicines Corporation, priority 2021, published 2024)

Key:
EGFR (L858R T790M C797S) = target: T1, EGFR (L858R T790M C797S) (Homo sapiens, UniProt P00533, C797S/L858R/T790M); experiment: Biochemical EGFR inhibition assay (Caliper mobility shift), EGFR LRTMCS; details: LRTMCS (PH) IC50 (nM) @ 1 mM ATP (Num), EGFR LRTMCS mutant
T1 construct: purchased SignalChem E10-122VG
Summary of the method: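 Kinase reactions at 25 °C run to 10–20% peptide phosphorylation, stopped with 35 mM EDTA. Phosphorylated product and substrate separated electrophoretically by mobility shift. Apparent IC50 from percent activity versus log compound concentration.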

[1] = target: T2, intracellular phosphorylation of EGFR in NCI-H1975 cell line that harbors the EGFR L858R T790M mutations (Homo sapiens, UniProt P00533, L858R/T790M); experiment: NCI-H1975 pEGFR AlphaLISA assay; type: cell-based; details: NCI-H1975 cells (EGFR L858R T790M), p-EGFR (Tyr1068), 4-5 hours incubation; read-out: Ext pEGFR H1975 GMean IC50 (nM) Protocol: @Pharmaron AlphaLISA (Num)
T2 construct: NCI-H1975 cell line that harbors the EGFR L858R T790M mutations (ATCC, CRL-5908); host or cells: NCI-H1975
T2 sequence (P00533 25-1210 T790M/L858R): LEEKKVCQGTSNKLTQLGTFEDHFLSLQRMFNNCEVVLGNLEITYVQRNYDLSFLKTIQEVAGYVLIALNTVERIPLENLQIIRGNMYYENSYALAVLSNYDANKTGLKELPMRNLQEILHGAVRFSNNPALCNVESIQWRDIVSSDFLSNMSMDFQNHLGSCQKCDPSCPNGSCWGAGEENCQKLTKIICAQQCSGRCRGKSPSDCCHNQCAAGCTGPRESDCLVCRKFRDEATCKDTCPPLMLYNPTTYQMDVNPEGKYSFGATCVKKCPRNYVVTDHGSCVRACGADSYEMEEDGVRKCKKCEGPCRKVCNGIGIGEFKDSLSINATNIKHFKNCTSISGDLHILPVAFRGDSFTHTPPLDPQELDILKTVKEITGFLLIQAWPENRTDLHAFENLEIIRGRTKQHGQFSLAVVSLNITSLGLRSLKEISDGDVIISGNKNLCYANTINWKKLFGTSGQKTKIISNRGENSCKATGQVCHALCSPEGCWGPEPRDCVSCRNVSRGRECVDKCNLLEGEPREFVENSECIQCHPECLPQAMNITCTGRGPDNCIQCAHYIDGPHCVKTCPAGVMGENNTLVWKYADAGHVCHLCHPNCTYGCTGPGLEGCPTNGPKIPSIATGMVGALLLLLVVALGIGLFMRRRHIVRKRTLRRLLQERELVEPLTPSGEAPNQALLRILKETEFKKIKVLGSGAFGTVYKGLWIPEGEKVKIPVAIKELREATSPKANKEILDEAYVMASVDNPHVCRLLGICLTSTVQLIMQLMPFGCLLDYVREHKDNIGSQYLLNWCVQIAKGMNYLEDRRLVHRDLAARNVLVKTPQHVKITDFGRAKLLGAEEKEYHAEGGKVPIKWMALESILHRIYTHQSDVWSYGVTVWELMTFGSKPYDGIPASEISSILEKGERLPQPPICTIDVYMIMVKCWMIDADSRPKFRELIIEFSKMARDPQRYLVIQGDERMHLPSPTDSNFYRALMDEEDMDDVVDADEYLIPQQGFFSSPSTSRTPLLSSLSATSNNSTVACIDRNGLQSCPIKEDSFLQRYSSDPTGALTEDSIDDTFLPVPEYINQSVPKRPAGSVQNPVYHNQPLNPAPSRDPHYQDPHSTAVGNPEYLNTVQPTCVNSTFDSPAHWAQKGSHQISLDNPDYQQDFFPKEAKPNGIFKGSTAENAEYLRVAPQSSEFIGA
Experimental: On the next day, the test compounds and DMSO control were added into H1975 cell plate followed by incubation at 37C/5% CO2 for 4-5 hours. […] Then 5 μL of a donor bead mix was added to each well followed by overnight incubation at room temperature in dark. On the next day, the plate was read at a compatible plate reader to obtain pEGFR signal. Percent of pEGFR inhibition was plotted against log concentration of compounds to generate IC50 values.

T1 sequence (P00533 25-1210 T790M/C797S/L858R): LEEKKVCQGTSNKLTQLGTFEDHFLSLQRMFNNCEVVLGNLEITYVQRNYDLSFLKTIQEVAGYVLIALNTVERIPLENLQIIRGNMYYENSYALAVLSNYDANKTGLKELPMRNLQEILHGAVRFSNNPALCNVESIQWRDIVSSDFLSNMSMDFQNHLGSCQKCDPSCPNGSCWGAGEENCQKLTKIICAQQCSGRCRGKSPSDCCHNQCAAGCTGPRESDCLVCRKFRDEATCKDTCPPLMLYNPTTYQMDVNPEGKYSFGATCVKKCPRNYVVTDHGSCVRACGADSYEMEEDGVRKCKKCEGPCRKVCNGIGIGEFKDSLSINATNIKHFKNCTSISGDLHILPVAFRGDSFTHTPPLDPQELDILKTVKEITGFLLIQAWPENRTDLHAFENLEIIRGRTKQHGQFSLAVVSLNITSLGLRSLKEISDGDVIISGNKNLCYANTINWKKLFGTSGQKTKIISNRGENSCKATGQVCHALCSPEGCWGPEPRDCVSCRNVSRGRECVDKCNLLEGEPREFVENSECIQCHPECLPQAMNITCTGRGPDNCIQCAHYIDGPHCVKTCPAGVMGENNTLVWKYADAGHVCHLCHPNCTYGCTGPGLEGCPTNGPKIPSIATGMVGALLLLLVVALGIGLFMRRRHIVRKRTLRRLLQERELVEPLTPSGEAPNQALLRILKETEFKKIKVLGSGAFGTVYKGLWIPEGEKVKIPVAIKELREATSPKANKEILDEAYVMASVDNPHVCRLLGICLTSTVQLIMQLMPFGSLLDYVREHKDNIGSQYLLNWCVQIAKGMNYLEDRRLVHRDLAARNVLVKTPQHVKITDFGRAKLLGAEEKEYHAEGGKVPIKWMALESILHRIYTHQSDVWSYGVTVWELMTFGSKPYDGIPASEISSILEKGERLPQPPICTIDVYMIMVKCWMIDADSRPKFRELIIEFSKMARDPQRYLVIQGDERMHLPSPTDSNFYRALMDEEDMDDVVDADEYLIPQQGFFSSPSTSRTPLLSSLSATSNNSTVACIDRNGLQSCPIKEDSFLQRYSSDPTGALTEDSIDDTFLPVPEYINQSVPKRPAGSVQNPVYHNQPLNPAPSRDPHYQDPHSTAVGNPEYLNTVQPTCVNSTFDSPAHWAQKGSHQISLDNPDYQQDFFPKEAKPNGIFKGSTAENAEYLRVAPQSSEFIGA

Row | SMILES | IC50 (EGFR (L858R T790M C797S)) | IC50 [1]
1 | CC(C)c1cnc(N2CCCC2)c2cnc(Nc3ccnc(N4CC[C@@H](O)[C@@H](F)C4)n3)cc12 [Example 151, (3S,4R)-3-fluoro-1-(4-((5-isopropyl-8-(pyrrolidin-1-yl)-2,7-naphthyridin-3-yl)amino)pyrimidin-2-yl)piperidin-4-ol] | 20 to 30 nM | 30 to 50 nM
2 | COC1CN(c2ccc([C@@H](C)CO)c3cc(Nc4ccnc(N5CC[C@@H](O)[C@@](C)(F)C5)n4)ncc23)C1 (single isomer, unassigned) [Example 180, (3S,4R)-3-fluoro-1-(4-((5-((R)-1-hydroxypropan-2-yl)-8-(3-methoxyazetidin-1-yl)isoquinolin-3-yl)amino)pyrimidin-2-yl)-3-methylpiperidin-4-ol or (3S,4R)-3-fluoro-1-(4-((5-((S)-1-hydroxypropan-2-yl)-8-(3-methoxyazetidin-1-yl)isoquinolin-3-yl)amino)pyrimidin-2-yl)-3-methylpiperidin-4-ol] | 30 to 100 nM | > 50 nM
3 | CO[C@H]1CCN(c2nccc(Nc3cc4c(C(C)C)ccc(N5C[C@H](c6nnco6)[C@H]5C)c4cn3)n2)C[C@@H]1O (single isomer, unassigned) [Example 217] | 15 to 20 nM | < 10 nM
4 | CC(C)c1ccc(N2CCC2)c2cnc(Nc3ccnc(N4CC[C@@H](O)[C@@](C)(F)C4)n3)cc12 [Example 110, (3S,4R)-1-(4-((8-(azetidin-1-yl)-5-isopropylisoquinolin-3-yl)amino)pyrimidin-2-yl)-3-fluoro-3-methylpiperidin-4-ol] | 30 to 100 nM | > 50 nM
5 | CC(C)c1cnc(N2CC(C)(O)C2)c2cnc(Nc3ccnc(N4CC[C@@H](O)[C@@](C)(F)C4)n3)cc12 [Example 50, (3S,4R)-3-fluoro-1-(4-((8-(3-hydroxy-3-methylazetidin-1-yl)-5-isopropyl-2,7-naphthyridin-3-yl)amino)pyrimidin-2-yl)-3-methylpiperidin-4-ol] | 20 to 30 nM | > 50 nM
6 | CO[C@@H]1CCN(c2nccc(Nc3cc4c(C(C)C)cnc(N5C[C@H](O)[C@H]5C)c4cn3)n2)C[C@@H]1O (single isomer, unassigned) [Example 122, (3S,4R)-1-(4-((8-((2R,3S)-3-hydroxy-2-methylazetidin-1-yl)-5-isopropyl-2,7-naphthyridin-3-yl)amino)pyrimidin-2-yl)-4-methoxypiperidin-3-ol or (3R,4S)-1-(4-((8-((2R,3S)-3-hydroxy-2-methylazetidin-1-yl)-5-isopropyl-2,7-naphthyridin-3-yl)amino)pyrimidin-2-yl)-4-methoxypiperidin-3-ol] | < 15 nM | 10 to 20 nM
7 | CC(=O)NCC1CCN1c1ncc(C(C)C)c2cc(Nc3ccnc(N4CC[C@@H](O)[C@@](C)(F)C4)n3)ncc12 (stereo partly drawn) [Example 70, N-((1-(6-((2-((3S,4R)-3-fluoro-4-hydroxy-3-methylpiperidin-1-yl)pyrimidin-4-yl)amino)-4-isopropyl-2,7-naphthyridin-1-yl)azetidin-2-yl)methyl)acetamide] | 15 to 20 nM | > 50 nM
8 | CC(C)c1cnc(N2CC(F)(C(=O)N(C)C)C2)c2cnc(Nc3ccnc(N4CC[C@@H](O)[C@@](C)(F)C4)n3)cc12 [Example 92, 3-fluoro-1-(6-((2-((3S,4R)-3-fluoro-4-hydroxy-3-methylpiperidin-1-yl)pyrimidin-4-yl)amino)-4-isopropyl-2,7-naphthyridin-1-yl)-N,N-dimethylazetidine-3-carboxamide] | 15 to 20 nM | 30 to 50 nM

Second part, the compound after the results:

Row | IC50 (EGFR (L858R T790M C797S)) | IC50 [1] | SMILES
9 | < 15 nM | 10 to 20 nM | C[C@@H]1CCN1c1ncc([C@@H](C)C(C)(C)O)c2cc(Nc3ccnc(N4CC[C@@H](O)[C@@](C)(F)C4)n3)ncc12 (single isomer, unassigned) [Example 186, (3S,4R)-3-fluoro-1-(4-((5-((R)-3-hydroxy-3-methylbutan-2-yl)-8-((R)-2-methylazetidin-1-yl)-2,7-naphthyridin-3-yl)amino)pyrimidin-2-yl)-3-methylpiperidin-4-ol or (3S,4R)-3-fluoro-1-(4-((5-((S)-3-hydroxy-3-methylbutan-2-yl)-8-((R)-2-methylazetidin-1-yl)-2,7-naphthyridin-3-yl)amino)pyrimidin-2-yl)-3-methylpiperidin-4-ol]
10 | < 15 nM | < 10 nM | CNCCO[C@H]1CCN(c2nccc(Nc3cc4c(C(C)C)cnc(N5CC[C@H]5C)c4cn3)n2)C[C@H]1F [Example 200, N-(2-((3R,4S)-3-fluoro-4-(2-(methylamino)ethoxy)piperidin-1-yl)pyrimidin-4-yl)-5-isopropyl-8-((R)-2-methylazetidin-1-yl)-2,7-naphthyridin-3-amine]
11 | < 15 nM | 30 to 50 nM | CO[C@@H]1CCN(c2nccc(Nc3cc4c(C(C)C)ccc(N5CC6(CCS6(=O)=O)C5)c4cn3)n2)C[C@@H]1O (single isomer, unassigned) [Example 125, 6-(3-((2-((3S,4R)-3-hydroxy-4-methoxypiperidin-1-yl)pyrimidin-4-yl)amino)-5-isopropylisoquinolin-8-yl)-1-thia-6-azaspiro[3.3]heptane 1,1-dioxide or 6-(3-((2-((3R,4S)-3-hydroxy-4-methoxypiperidin-1-yl)pyrimidin-4-yl)amino)-5-isopropylisoquinolin-8-yl)-1-thia-6-azaspiro[3.3]heptane 1,1-dioxide]
12 | < 15 nM | 30 to 50 nM | CC(C)c1cnc(N2Cc3cnn(C)c3C2)c2cnc(Nc3ccnc(N4CC[C@@H](O)[C@@](C)(F)C4)n3)cc12 [Example 90, (3S,4R)-3-fluoro-1-(4-((5-isopropyl-8-(1-methyl-4,6-dihydropyrrolo[3,4-c]pyrazol-5(1H)-yl)-2,7-naphthyridin-3-yl)amino)pyrimidin-2-yl)-3-methylpiperidin-4-ol]
13 | < 15 nM | 10 to 20 nM | CNCCO[C@@H]1CCN(c2nccc(Nc3cc4c(C(C)C)cnc(N5CC[C@H]5C)c4cn3)n2)C[C@@H]1F [Example 201, N-(2-((3S,4R)-3-fluoro-4-(2-(methylamino)ethoxy)piperidin-1-yl)pyrimidin-4-yl)-5-isopropyl-8-((R)-2-methylazetidin-1-yl)-2,7-naphthyridin-3-amine]
14 | < 15 nM | > 50 nM | CC(C)c1cnc(N2CCC23CNC3)c2cnc(Nc3ccnc(N4CC[C@@H](O)[C@@](C)(F)C4)n3)cc12 [Example 190, (3S,4R)-3-fluoro-1-(4-((5-isopropyl-8-(1,6-diazaspiro[3.3]heptan-1-yl)-2,7-naphthyridin-3-yl)amino)pyrimidin-2-yl)-3-methylpiperidin-4-ol]
15 | < 15 nM | < 10 nM | CO[C@@H]1CCN(c2nccc(Nc3cc4c(C(C)C)cnc(N5C[C@H](O)[C@H]5C)c4cn3)n2)C[C@@H]1F [Example 150, (2R,3S)-1-(6-((2-((3S,4R)-3-fluoro-4-methoxypiperidin-1-yl)pyrimidin-4-yl)amino)-4-isopropyl-2,7-naphthyridin-1-yl)-2-methylazetidin-3-ol]
16 | < 15 nM | 20 to 30 nM | CC(C)c1cnc(N2C[C@H](O)[C@H]2C)c2cnc(Nc3ccnc(N4C[C@@H](F)[C@@H](O)[C@](C)(F)C4)n3)cc12 (single isomer, unassigned) [Example 136, (3R,4R,5R)-3,5-difluoro-1-(4-((8-((2R,3S)-3-hydroxy-2-methylazetidin-1-yl)-5-isopropyl-2,7-naphthyridin-3-yl)amino)pyrimidin-2-yl)-3-methylpiperidin-4-ol or (3S,4S,5S)-3,5-difluoro-1-(4-((8-((2R,3S)-3-hydroxy-2-methylazetidin-1-yl)-5-isopropyl-2,7-naphthyridin-3-yl)amino)pyrimidin-2-yl)-3-methylpiperidin-4-ol]
17 | < 15 nM | > 50 nM | CC(C)c1cnc(-c2ncn(C)n2)c2cnc(Nc3ccnc(N4CC[C@@H](O)[C@@](C)(F)C4)n3)cc12 [Example 15, (3S,4R)-3-fluoro-1-(4-((5-isopropyl-8-(1-methyl-1H-1,2,4-triazol-3-yl)-2,7-naphthyridin-3-yl)amino)pyrimidin-2-yl)-3-methylpiperidin-4-ol]
18 | < 15 nM | 20 to 30 nM | CC(C)c1cnc(N2CC(CNS(C)(=O)=O)C2)c2cnc(Nc3ccnc(N4CC[C@@H](O)[C@@](C)(F)C4)n3)cc12 [Example 83, N-((1-(6-((2-((3S,4R)-3-fluoro-4-hydroxy-3-methylpiperidin-1-yl)pyrimidin-4-yl)amino)-4-isopropyl-2,7-naphthyridin-1-yl)azetidin-3-yl)methyl)methanesulfonamide]
19 | < 15 nM | < 10 nM | [2H]C([2H])([2H])O[C@@H]1CCN(c2nccc(Nc3cc4c(C(C)C)cnc(N5C[C@H](OCCO)[C@H]5C)c4cn3)n2)C[C@@H]1F [Example 140, 2-(((2R,3S)-1-(6-((2-((3S,4R)-3-fluoro-4-(methoxy-d3)piperidin-1-yl)pyrimidin-4-yl)amino)-4-isopropyl-2,7-naphthyridin-1-yl)-2-methylazetidin-3-yl)oxy)ethan-1-ol]
20 | < 15 nM | 20 to 30 nM | COC(=O)NCC1CN(c2ncc(C(C)C)c3cc(Nc4ccnc(N5CC[C@@H](O)[C@@](C)(F)C5)n4)ncc23)C1 [Example 84, methyl ((1-(6-((2-((3S,4R)-3-fluoro-4-hydroxy-3-methylpiperidin-1-yl)pyrimidin-4-yl)amino)-4-isopropyl-2,7-naphthyridin-1-yl)azetidin-3-yl)methyl)carbamate]
